The values that follow come from patent US20230381192A1, “METHODS FOR CONTROLLING AND PREDICTING RECOVERY AFTER NMBA ADMINISTRATION” (Cornell University, priority 2020, published 2023).

One test relates to Rhesus monkeys. In words: Spontaneous recovery from NMB (twitch 5% to 95% of baseline) after bolus or infusion in Rhesus monkeys under isoflurane. The test is classed as in vivo, Rhesus monkey. To be noted: for 5%-95% Interval: mean ± SD. The method, then: Rhesus monkeys under isoflurane anesthesia were administered a bolus dose of either RP2000 or RP1000 at a dose equal to 1× to 10× the ED95 in Rhesus monkeys of the administered compound (ED95,Rp1000=0.040 mg/kg; ED95,RP2000=0.053 mg/kg). Twitch (0.15 Hz) and TOF (2 Hz×2 seconds) were recorded throughout the 6 -10 hours experiments. Time to spontaneous recovery after bolus administration, characterized by recovery of twitch from 5% to 95% of baseline was measured.
Separately, continuous infusions of 20-180 minutes duration were given (to separate subjects), and after discontinuation of infusion, time to spontaneous recovery of NMB, characterized by recovery of twitch from 5% to 95% of baseline was measured.

A short description of test [1]: Predicted spontaneous recovery after RP2000 in patients under inhaled anesthesia. The test is classed as in vivo, human. To be noted: doses up to 2.5-3× the ED95. The text has this:
While not wishing to be bound by theory, it is believed that the highly reproducible half-life is due to degradation of RP1000 through cysteine adduction (e.g., by reaction with glutathione). The advantages imparted by the understanding of the pharmacodynamics of RP1000 include, but are not limited to, that the level of recovery of function may be easily predicted in human patients. […] This disclosure therefore reflects this prediction.

For the compound `COc1ccc(C[C@@H]2c3cc(OC)c(OC)cc3CC[N@@+]2(C)CCCOC(=O)/C=C/C(=O)OCCC[N+]2(Cc3ccc(OC)c(OC)c3)CCOCC2)cc1.[Cl-].[Cl-]` [RP2000, 4-(3-(((E)-4-(3-((1R)-6,7-dimethoxy-1-(4-methoxybenzyl)-2-methyl-1,2,3 4-tetrahydro-2-isoquinolin-2-ium-2-yl)propoxy)-4-oxobut-2-enoyl)oxy)propyl)-4-(3,4-dimethoxybenzyl)morpholin-4-ium], the “ED95 in Rhesus monkeys” value in the test with Rhesus monkeys (Rhesus monkeys, isoflurane anesthesia) was determined as 0.053 mg/kg. In addition, the “5%-95% Interval” value is given as 6.2 ± 1.4 min in the test with Rhesus monkeys (after continuous infusion of 20-180 minutes), 6.1 ± 1.6 min with Rhesus monkeys (bolus dose 0.10 mg/kg), 6.4 ± 1.9 min in the test on Rhesus monkeys (bolus dose 0.20 mg/kg) and 6.7 ± 2.4 min in the test with Rhesus monkeys (bolus dose 0.50 mg/kg). Further, in test [1], the “predictability of spontaneous recovery” value is given as “highly predictable”.
